The numbers were not newly measured in patent US20250018217A1, “PH[…] THERAPY APPARATUS AND METHODS FOR TREATING ORAL DISEASE” (Biolux Group SA, priority 2022, published 2025), which cites them from elsewhere.

Entries after “also recorded” stand apart in the source; their conditions may differ. Where two headings read alike, the source gives them in different places.

For series [1] the following is noted: daily oral supplement of 2,000 IU to 6,000 IU in adults, within 3 months.

On to `Cc1cc(=[N+](C)C)cc2sc3cc(N(C)C)cc(C)c3nc1-2.[Cl-]` [Dimethyl methylene blue], for which, in the series with microbial species (800 um, excitation wavelength 635-652), the “Antimicrobial activity (in solution)” value is “[12]A. baumannii”.
Consider `CN(C)c1ccc2nc3ccc(=[N+](C)C)cc-3sc2c1` [Methylene blue], for which the “Antimicrobial activity (in solution)” value in the series with microbial species (25 ug/ml, excitation wavelength 632 nm) is “[8] Various”.
For Sulfonic porphyrins (TPPS), the “Antimicrobial activity (in solution)” value with microbial species (no concentration or wavelength printed (TPPS)) was “[42]S. aureus”.
Consider vitamin D, for which, in series [1], the “Blood levels of vitamin D” value is 0.04 µg/mL.
Take `Cc1cc2nc3ccc(N(C)C)cc3[s+]c2cc1N.[Cl-]` [Toluidine blue O]: the “Antimicrobial activity (in solution)” value with microbial species (100 mg/l, excitation wavelength 410 nm-660 nm) is “[21]E. coli”.
As for `O=C1OC2(c3ccccc31)c1cc(I)c(O)c(I)c1Oc1c2cc(I)c(O)c1I` [Erythrosine], the “Antimicrobial activity (in solution)” value in the series with microbial species (excitation wavelength 500-550 nm) is “[64]S. mutans”.
For `CCNc1cc2[s+]c3cc(NCC)c(C)cc3nc2cc1C.[Cl-]` [New Methylene blue], in the series with microbial species (00 uM, excitation wavelength 635-652), the “Antimicrobial activity (in solution)” value was “[17]A. baumannii”.
With Phthalocynine, the “Antimicrobial activity (in solution)” value with microbial species (excitation wavelength 670 nm) was “[74]A. hidrophila”.
Turning to `COc1cc(/C=C/C(=O)CC(=O)/C=C/c2ccc(O)c(OC)c2)ccc1O` [Curcumin], the “Antimicrobial activity (in solution)” value in the series with microbial species (0.75 to 5 g/l, excitation wavelength 547 nm) was “[50]S. mutans; also recorded: [51]L. acidophilus”.
Take `O=C([O-])c1c(Cl)c(Cl)c(Cl)c(Cl)c1-c1c2cc(I)c(=O)c(I)c-2oc2c(I)c([O-])c(I)cc12.[Na+].[Na+]` [Rose Bengal]: in the series with microbial species (10 um, excitation wavelength 532 nm), the “Antimicrobial activity (in solution)” value was “[26]E. faecalis”.
